From patent US5264443A, “3-aryl oxazolidinone compounds and therapeutic use thereof” (Delalande S.A., priority 1991, dated 1993) come the findings set out here.

Each structure is given as a SMILES string.

For the experiment, the system named is 5-hydroxy tryptophan (5-HTP). The experiment in a line: potentialisation of 5-HTP in the rat (anti-depressive activity). The format is in vivo. As to conditions: 1 h, oral administration, 5-HTP intraperitoneally one hour after the first treatment, read-out: ED50 (dose producing generalised tremors or stereotypy in 50% of the animals). The text has this:
The anti-depressive activity was shown by the test of potentialisation of 5-HTP in the rat by the method described by M. JALFRE, B. BUCHER, A. COSTON, G. MOCQUET and R. D. PORSOLT: Arch. Int. Pharmacodyn., (1982), 259, 194-221. A determination on the rat was made of that dose of the product which, orally administered, produces generalised tremors or stereotypy (drumming, head movements) in 50% of the animals (ED50) after intraperitoneal administration of 5-hydroxy tryptophan (5-HTP) one hour after the first treatment. The results obtained in the preceding test, using some compounds according to the invention, are given by way of example in the following table: […]
As to `COC[C@H]1CN(c2ccc(OCC[C@@H](OCc3ccc[n+]([O-])c3)C(F)(F)F)cc2)C(=O)O1` [MD 290065, 3-[4-[4,4,4-trifluoro3-(3-N-oxide-pyridylmethoxy)(R)butoxy]phenyl]5-methoxymethyl(R) 2-oxazolidinone], the ED50 is 0.62 mg/kg.

With `COC[C@H]1CN(c2ccc(OCC[C@@H](OCc3cccnc3)C(F)(F)F)cc2)C(=O)O1` [MD 360411 (oxalate), 3-[4-[4,4,4-trifluoro 3-(3-pyridylmethoxy)(R)butoxy]phenyl]5-methoxymethyl(R)2-oxazolidinone], the ED50 worked out at 0.4 mg/kg.

In the case of `COC[C@H]1CN(c2ccc(OCC[C@@H](OCc3ccncc3)C(F)(F)F)cc2)C(=O)O1` [MD 290057, 3-[4-[4,4,4-trifluoro 3-(4-pyridylmethoxy)(R)butoxy]phenyl]5-methoxymethyl(R)2-oxazolidinone], the ED50 came to 0.53 mg/kg.

As a reminder, the ED50 is the midpoint of the dose-response relation.
